# Source: US9592183B2, “Inhibitor of endothelin action and skin-whitening agent” (Kao Corporation, priority 2010, dated 2017)
# Entries after “also recorded” stand apart in the source; their conditions may differ.
# Experiments:
# Type in all cases: cell-based
# [1] = tested on: endothelin (ET-1)-induced rise in intracellular calcium concentration in normal human neonatal epidermal melanocytes (NHEMs); assay: Endothelin action-suppressing effect: endothelin-induced rise in intracellular calcium (Fluo4-AM, FDSS); conditions: for Effect of suppressing endothelin action (in words): 50 μM; for Rate of rise in intracellular Ca concentration: pretreated 1 minute, ET-1 100 nM, relative value, control = 100, N=6
# Experimental: Normal human neonatal epidermal melanocytes (NHEMs, KURABO INDUSTRIES LTD.) were seeded at 3×10^4 cells/well (200 μL/well) in 96-well plates for use in fluorometry, and cultured at 37° C. under 5% CO2. The medium used was PMA (−), growth additive (HMGS)-containing Medium 254.
# After culture for 3 days, the medium was removed from the culture plate by decantation, and replaced with an assay buffer containing a reagent Fluo4-AM for intracellular Ca^2++ measurement, which was followed by incubation at 37° C. for 1 hour. Subsequently, 20 seconds after the start of the measurement, the compound at a predetermined concentration was pretreated for 1 minute in a FDSS (Functional Drug Screening System) instrument, and then endothelin (ET-1, 100 nM final concentration) as a ligand was added to the wells. Fluo4-AM fluorescence was detected at the measurement wavelengths Ex. 480 nm and Em. 540 nm over time from the start of the measurement to 5 minutes later.
# For each compound, the rate (%) of rise in intracellular calcium (calcium ion) concentration was calculated as a relative value (%) when an increase (Max ratio−Min ratio) in Fluo4-AM fluorescence in a control was normalized as 100. The suppressing effect of endothelin action was evaluated based on the calculated rate. In the control used, ethanol or a 10 to 95 v/v % aqueous ethanol solution was added at a final concentration of 0.1 to 0.5 v/v %. […]
# The compound prepared as described above was pretreated at the final concentration shown in Table 3 and subjected to the assay system. Then, the rate of endothelin-induced rise in Ca concentration was calculated (N=6). […]
# [2] = tested on: melanocyte-containing, 3-D cultured skin model (MEL300A); assay: Cell respiration activity (Alamar Blue) of the skin model; conditions: final concentration 50 μM, after 14 days; results not shown
# Experimental: (§1) A melanocyte-containing, 3-D cultured skin model (MEL300A, KURABO INDUSTRIES LTD.) was cultured at 37° C. under 5% CO2 using an EPI-100-NMM113 medium to which endothelin-1 (ET-1) as a melanocyte activator and SCF (stem cell growth factor) were each added at a final concentration of 10 nM. From the first day of the culture, the baeomycesic acid was added at a final concentration of 50 μM (N=2). The medium was refreshed once every three days. After 14 days, the skin model was washed with PBS and photographed. Subsequently, the cell respiration activity was measured using the Alamar Blue reagent to confirm that the final concentration was not cytotoxic (the results are not shown).
# [3] = tested on: melanocyte-containing, 3-D cultured skin model (MEL300A); assay: Melanin production-suppressing effect in 3-D cultured skin model stimulated with ET-1 and SCF; conditions: 14 days; for Effect on melanin content / melanin production (in words): 3-D skin model
# Experimental: as §1
# Subsequently, the skin model cup was washed with PBS, and the skin sheet was removed with tweezers, transferred into a tube, and washed three times with PBS. The skin sheet was washed three times with 50% ethanol and twice with 100% ethanol, and then allowed to stand overnight at room temperature, so that it was completely dried. After 200 μL of 2 M NaOH was added, the skin sheet was dissolved at 100° C. A supernatant obtained by centrifugation of the solution was measured for absorbance at a wavelength of 405 nm, and then the melanin content was calculated. The melanin content was expressed as a relative value (%) when the melanin content in a control was normalized as 100. In the control used, ethanol or a 10 to 95 v/v % aqueous ethanol solution was added at a final concentration of 0.1 to 0.5 v/v %.
SMILES,Effect of suppressing endothelin action (in words) [1],Rate of rise in intracellular Ca concentration ([1]; compound 50 μM) [%],"Cytotoxicity (cell respiration activity, Alamar Blue) [2]","Reduction in melanin content in the skin tissue relative to the control system ([3]; 50 μM, ET-1 and SCF each 10 nM, FIG. 3, N=2)","Skin colour of the skin sheet (photograph, FIG. 2) ([3]; 50 μM, compared with the control system)",Effect on melanin content / melanin production (in words) ([3]; ET-1 and SCF each 10 nM),"Suppression of endothelin-induced rise in intracellular Ca concentration ([1]; compound 50 μM, relative to control)"
"COc1cc(C)c(C(=O)Oc2cc(C)c(C(=O)O)c(O)c2C)c(O)c1C=O [Baeomycesic Acid, baeomycesic acid]",significantly suppresses the rise in intracellular Ca concentration,52.7,not cytotoxic,at least 40%,light skin color and suppressed skin blackening,significantly suppresses melanin production,
"COc1cc(C)c(C(=O)Oc2cc(C)c(C(=O)O)c(O)c2C)c(O)c1C [Barbatic Acid, Barbatic acid]",,38.4,,,,,
"COc1cc(C)c(C(=O)Oc2cc(C)c(C(=O)O)c(O)c2C)c(OC)c1C [Diffractaic Acid, Diffractaic acid]",,28.0,,,,,
"COc1cc(C)c(C(=O)Oc2cc(C)c(C(=O)O)c(O)c2C)c(O)c1C(=O)O [Squamatic Acid, squamatic acid, reference compound]",almost no effect of suppressing endothelin action,95.9,,,,no significant reduction in melanin content; also recorded: almost no effect of suppressing melanin production,about 4%
